Assay results taken from publication PMC8474110 (Journal of Medicinal Chemistry, 2021).
Like-named read-outs stand apart in the source and are kept apart here.

Columns and labels:
[1] = Enzymatic stability (kinetics of enzymatic hydrolysis) in human plasma; format: in vitro ADME; settings: human plasma (80%), 37 °C; for half-life at 3.8 µM: pH 7.4, read-out: t1/2, enzymatic stability (converted)
Protocol: (§1) Enzymatic stability studies in rat and human plasma were performed for both the racemate and its enantiomers (Table 1). […] Considering the high stability of (±)-1 and its enantiomers in simulated physiological fluids and human plasma, these compounds could reach the target site without undergoing esterase metabolism.
(§2) Human plasma was purchased from 3H Biomedical (Uppsala, Sweden, Europe). Plasma aliquots (4 mL) were diluted with 0.02 M PBS (pH 7.4) to obtain a final volume of 5 mL containing 80% plasma. Studies were performed at 37 ± 0.5 °C using a shaking bath. Each experiment was started by adding a 10^–4 M drug stock solution (200 μL) to the preheated plasma. Hundred microliters of the thermostated medium was taken at various times, treated with cold methanol (500 μL) to precipitate plasma proteins, and centrifugated (5 min at 5000g). The supernatant was analyzed by HPLC to quantify the amount of the residual intact compound.

[2] = test system: HREC stimulated with VEGF-A; test: Wound healing assay (cell motility) in HREC stimulated by VEGF-A; format: cell-based, human; settings: 48 h; for effect of AC927 cotreatment on the compound's inhibition of VEGF-A-mediated HREC motility: 5 μM compound + 2 μM AC927, 80 ng/mL VEGF-A; for effect of PTZ cotreatment on the compound's inhibition of VEGF-A-mediated HREC motility: 5 μM compound + 2 μM PTZ
Protocol: Unregulated stimulation of endothelial cell motility by VEGF-A underlies pathological angiogenesis.[41] Therefore, the effects of (±)-1, (+)-1, and (−)-1 on HREC motility stimulated by VEGF-A (80 ng/mL) were evaluated with the wound healing assays (Figures 3 and S3–S5). VEGF-A promoted HREC migration compared to untreated controls, inducing complete wound closures at 24 h (Figures S3–S5). […] Cotreatments with both AC927 and PTZ reduced (±)-1 and (+)-1 abilities to inhibit VEGF-A-mediated wound healing (Figure 3A,B). […] The representative images of HREC treated with VEGF-A and three prodrug derivatives after the scratch wound are shown in the Supporting Information (Figures S2–S4A).
(§3) HREC and 92-1 cells (2.5 × 10^5 cells/well) were seeded into 24 well plates and grown to confluency. Confluent cell monolayers were scratched with a p200 pipet tip to create 1 mm wide wounds. After washing (three times) with PBS to remove cell debris, wounded monolayers were incubated for 48 h (37 °C) in the complete medium in the presence of the indicated treatments. HREC were treated for 48 h in the presence of (±)-1, (+)-1, or (−)-1 with or without VEGF-A (80 ng/mL), AC927, and PTZ. 92-1 cells were treated for 48 h in the presence of (±)-1, (+)-1, or (−)-1. Wound closure was monitored by photographs at 40X using a phase-contrast microscope in each culture condition and at each time point (0, 24, and 48 h for HREC and 0, 6, 24, 30, and 48 h for 92-1 cells). The numbers of cells toward the wounds were counted using ImageJ software (ImageJ 1.50e, National Institutes of Health, NIH, Bethesda, MD) and were quantified by measuring the distance traveled over time by both cell fronts into the wound area.

[3] = test system: human 92-1 uveal melanoma cells; test: Wound healing assay (cell migration) in human 92-1 uveal melanoma cells; format: cell-based; settings: for effect on 92-1 cell migration: 3 μM, over 48 h time courses; for IC50: Homo sapiens, read-out: IC50, inhibition of 92-1 cell migration (wound healing)
Protocol: Finally, tumor cell migration was explored with the wound healing assay (Figure 7). (±)-1, (+)-1, and (−)-1 inhibited 92-1 cell migration over 48 h time courses (Figure 7A). […] In particular, the derivative (−)-1 exerted the highest antimigratory effects compared to the (+)-enantiomer (>10-fold) or the racemic mixture (±)-1 (>40-fold; Figure 7B). These actions closely mirror those observed in HREC migration (Figure 3) and could similarly reflect signaling through σ receptors by the HP-mII molecular component of the prodrugs, without VPA/HDAC involvement. Indeed, their differential potencies in motility inhibition (Figure 7) are aligned with increasing binding affinities for σ2 receptors from (±)-1 to (+)-1 and (−)-1 (Table 2), thus implicating the stereochemical diversity of HP-mII enantiomeric components as an underlying molecular mechanism able to regulate cell migration.
as §3

human UM 92-1 cells = test: Crystal violet proliferation assay in human UM 92-1 cells; format: cell-based; settings: for IC50: 48 h
Protocol: Then, actions on cell proliferation were examined by crystal violet staining (Figure 6).
HREC and human 92-1 cell (seeded 4 × 10^3 and grown for 24 h at optimum culture conditions) proliferation was measured using crystal violet staining after treatment in 96-well plates with the indicated concentrations of chemicals for an additional 48 h. Control cells received an equal volume of vehicle (DMSO). At the end of the treatment, each well was washed with phosphate-buffered saline (PBS). Following this, the cells were fixed (in 4% paraformaldehyde) and stained with crystal violet solution (0.5% in 20% methanol for HREC or 1% aqueous solution for 92-1 cells). Subsequently, the plate was washed with water and left to dry. Crystal violet staining was evaluated by measuring the absorbance at 570 nm or 590 nm, after crystal violet extraction with 10% acetic acid (at room temperature for 10 min), with a microplate reader with the plate reader (Synergy 2-BioTek). For quantification, each assay was carried out in triplicate.

[4] = Enzymatic stability (kinetics of enzymatic hydrolysis) in rat plasma; format: in vitro ADME; settings: for half-life at 3.8 µM: plasma (80%), pH 7.4, read-out: t1/2, enzymatic stability (converted)
Protocol: as §1, §2

[5] = test system: HREC stimulated with VEGF-A; test: Tube formation assay (Matrigel) in HREC stimulated with VEGF-A; format: cell-based, human; settings: 24 h; for effect on VEGF-A-stimulated tube formation in HREC: 5 μM
Protocol: To further explore effects on angiogenesis, tube formation assays with HREC were evaluated. Following seeding onto basement membranelike Matrigel and stimulation for 24 h with VEGF-A (80 ng/mL), HREC organized into networks of tubular structures mimicking capillary formation in neoangiogenesis (Figure 4A).
The tube formation assay was analyzed in vitro in BD Matrigel, following the manufacturer’s instructions (BD, Bedford). In brief, 96-well plates were coated with 50 μL of Matrigel and allowed to solidify at 37 °C for 2 h. HREC were seeded at 1.5 × 10^4 cells/well in 100 μL of medium with (±)-1, (+)-1, or (−)-1 in the presence or absence of VEGF-A (80 ng/mL), AC927, and PTZ. After […] of incubation, tubelike structures were photographed at 10× magnification using an inverted microscope (Leica DM IRB) equipped with a CCD camera. Tube formations were quantified with ImageJ software (NIH, Bethesda, MD).

[6] = Homo sapiens, read-out: IC50 on human 92-1 cells (proliferation, crystal violet), 48 h
[7] = read-out: IC50 on human 92-1 cells (proliferation, crystal violet)

SMILES | Kobs, enzymatic stability [1] | half-life at 3.8 µM [1] | effect of AC927 cotreatment on the compound's inhibition of VEGF-A-mediated HREC motility [2] | effect of PTZ cotreatment on the compound's inhibition of VEGF-A-mediated HREC motility ([2]; 80 ng/mL VEGF-A) | effect on 92-1 cell migration [3] | IC50 ([3]; 48 h) | IC50 (human UM 92-1 cells; [6]) | IC50 (human UM 92-1 cells; [7]) | Kobs, enzymatic stability [4] | half-life at 3.8 µM [4] | effect on VEGF-A-stimulated tube formation in HREC ([5]; 80 ng/mL VEGF-A) | effect of PTZ, AC927 or their combination on the antiproliferative effects of the compound in 92-1 cells (human UM 92-1 cells; 5 μM compound, PTZ 2 μM, AC927 2 μM) | antiproliferative effect with respect to VPA alone (human UM 92-1 cells; UM 92-1 cells) | effect of AC927 on the compound's action on VEGF-A-stimulated tube formation ([5]; 5 μM compound + 2 μM AC927, 80 ng/mL VEGF-A) | effect of PTZ on the compound's action on VEGF-A-stimulated tube formation ([5]; 5 μM compound + 2 μM PTZ, 80 ng/mL VEGF-A) | effect on VEGF-A-mediated HREC migration (wound healing) ([2]; 5 μM, 80 ng/mL VEGF-A) | antimigratory effect compared to the (+)-enantiomer ([3]; 92-1 cells, 48 h) | antimigratory effect compared to the racemic mixture (±)-1 ([3]; 92-1 cells, 48 h)
CCCC(CCC)C(=O)O[C@H](CCCN1CCC(O)(c2ccc(Cl)cc2)CC1)c1ccc(F)cc1 [(+)-1] | 0.012 ± 0.001 h^–1 | 58.2 ± 1.2 h | reduced | significantly and completely blocked | inhibited | 1.15 µM | 4.95 µM | 4.9 ± 0.58 µM | 1.60 ± 0.005 h^–1 | 0.434 ± 0.002 h | blocked | – | – | – | – | – | – | –
CCCC(CCC)C(=O)OC(CCCN1CCC(O)(c2ccc(Cl)cc2)CC1)c1ccc(F)cc1 (racemic) [(±)-1] | 0.011 ± 0.006 h^–1 | 60.5 ± 0.6 h | significantly, but partially, opposed | significantly, but partially, opposed | inhibited | 4.22 µM | 5.46 µM | 5.5 ± 0.74 µM | 2.96 ± 0.01 h^–1 | 0.234 ± 0.003 h | blocked | did not perturb | about 400 fold | partially and equally blocked | partially and equally blocked | – | – | –
CCCC(CCC)C(=O)O[C@@H](CCCN1CCC(O)(c2ccc(Cl)cc2)CC1)c1ccc(F)cc1 [(−)-1] | 0.01 ± 0.002 h^–1 | 70.3 ± 1.5 h | prevented, in part | – | inhibited | 0.09 µM | 4.45 µM | 4.4 ± 0.68 µM | 2.15 ± 0.03 h^–1 | 0.322 ± 0.01 h | blocked | – | – | – | – | highest reduction | > 10 fold | > 40 fold
